Legend:
[1] = tested on: Dandelion; experiment: Weed spectrum, greenhouse pot test; type: in vivo; conditions: two weeks after application
[2] = tested on: Kentucky bluegrass; experiment: Actual field condition test of Example 1 (golf course); type: in vivo, Poa pratensis; conditions: 100 g ai/ha, twenty days after application
Procedure: (§1) The test chemical of the Example 1 was applied to a turf grass field, in which Digitaria sanguinalis as a representative summer-time poaceae weed and Kyllinga brevifolia as a representative hard-to-control perennial cyperaceae weed are thriving predominantly, to evaluate weed control effect of the compound. The experiment was carried out from May to July, 2008 in the Dae-duk Research Park golf course (Doryong-dong, Yusong-gu, Daejon, South Korea). At the time of the chemical application, Digitaria sanguinalis was at about 4-leaf stage and Kyllinga brevifolia was at growth period.

[3] = tested on: Zoysia japonica; experiment: as above; type: in vivo; conditions: 100 g ai/ha, twenty days after application
Procedure: as §1

[4] = tested on: Bentgrass; experiment: Turf grass selectivity, greenhouse pot test; type: in vivo, Agrostris palustris
Source text: Turf mats of Zoysia grass, bentgrass, Kentucky bluegrass, or perennial rye grass known as cool season turfgrass or western grass were purchased and cut into a piece having 10 cm×20 cm size. Then, each piece was transplanted in a rectangular plastic pot (surface area of 300 cm^2) in which sandy loam and mixed top soil (Boo-Nong Top Soil No. 3, for horticultural use) are filled in 1:1 ratio. After the transplantation, the grasses were cut once a week to maintain the blade height at 0.5-1.0 cm and cultivated for one month in a green house of which temperature was kept at 25˜30° C. for daytime and 15˜25° C. for nighttime, respectively. Then, the ‘test chemical’ of the above Examples 1 and 2 or ‘control chemical’ was applied thereto in an amount of 400, 200, 100, 50, 25, 12, 6, 3 g ai/ha. As a “control chemical”, pyrazolsulfuron ethyl wettable agent (manufactured by Dongbu Fine Chemicals; herein after, referred to as ‘control chemical No. 1’) and flazasulfuron (manufactured by Dongbu HiTek; herein after, referred to as ‘control chemical No. 2’), both sulfonylurea herbicides for a turf grass, were used. Application was carried out by using a track sprayer (R&D Sprayer, USA) equipped with Teejet 8002 nozzle (Spraying Systems Co., USA), and the application amount was adjusted to 2,000 L/ha, which is a typical application amount for a golf course in Korea. Application solution was prepared by diluting the “test chemical” or the “control chemical” with tap water. […] The test was repeated three times in a random arrangement and the results are given in average value of each test (see Table 2 below).

[5] = tested on: Perennial rye grass; experiment: Turf grass selectivity, greenhouse pot test; type: in vivo
Summary of the method: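 Turf mats transplanted to pots of sandy loam/top soil (1:1), mown weekly to 0.5-1.0 cm and grown one month in greenhouse (25˜30° C. day, 15˜25° C. night). Test chemicals sprayed at 400, 200, 100, 50, 25, 12, 6, 3 g ai/ha in 2,000 L/ha tap-water dilution; three replicates, randomised, averaged.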

SMILES: CCOC(=O)c1cnn(C)c1S(=O)(=O)NC(=O)Nc1nc(OC)cc(OC)n1 [Control chemical No. 1, Pyrazosulfuron ethyl, reference compound]
- efficacy (0-100 scale) ([1]; Post-emergence, 12 g ai/ha): 80
- efficacy (0-100 scale) ([1]; Post-emergence, 25 g ai/ha): 90
- efficacy (0-100 scale) ([1]; Post-emergence, 50 g ai/ha): 100
- efficacy (0-100 scale) ([1]; Post-emergence, 100 g ai/ha): 100
- efficacy (0-100 scale) ([1]; Pre-emergence, 12 g ai/ha): 70
- efficacy (0-100 scale) ([1]; Pre-emergence, 25 g ai/ha): 80
- efficacy (0-100 scale) ([1]; Pre-emergence, 50 g ai/ha): 90
- efficacy (0-100 scale) ([1]; Pre-emergence, 100 g ai/ha): 100
- phytotoxicity in actual field condition [2]: 0
- phytotoxicity in actual field condition [3]: 0
- phytotoxicity (visual assessment 0-10) ([4]; 3 g ai/ha, 2 weeks): 0
- phytotoxicity (visual assessment 0-10) ([4]; 3 g ai/ha, 4 weeks): 0
- phytotoxicity (visual assessment 0-10) ([4]; 6 g ai/ha, 2 weeks): 0
- phytotoxicity (visual assessment 0-10) ([4]; 6 g ai/ha, 4 weeks): 0
- phytotoxicity (visual assessment 0-10) ([4]; 12 g ai/ha, 2 weeks): 0
- phytotoxicity (visual assessment 0-10) ([4]; 12 g ai/ha, 4 weeks): 0
- phytotoxicity (visual assessment 0-10) ([4]; 25 g ai/ha, 2 weeks): 0
- phytotoxicity (visual assessment 0-10) ([4]; 25 g ai/ha, 4 weeks): 0
- phytotoxicity (visual assessment 0-10) ([4]; 50 g ai/ha, 2 weeks): 0
- phytotoxicity (visual assessment 0-10) ([4]; 50 g ai/ha, 4 weeks): 0
- phytotoxicity (visual assessment 0-10) ([4]; 100 g ai/ha, 2 weeks): 1
- phytotoxicity (visual assessment 0-10) ([4]; 100 g ai/ha, 4 weeks): 0
- phytotoxicity (visual assessment 0-10) ([4]; 200 g ai/ha, 2 weeks): 2
- phytotoxicity (visual assessment 0-10) ([4]; 200 g ai/ha, 4 weeks): 0
- phytotoxicity (visual assessment 0-10) ([4]; 400 g ai/ha, 2 weeks): 3
- phytotoxicity (visual assessment 0-10) ([4]; 400 g ai/ha, 4 weeks): 1
- phytotoxicity (visual assessment 0-10) ([5]; 3 g ai/ha, 2 weeks): 0
- phytotoxicity (visual assessment 0-10) ([5]; 3 g ai/ha, 4 weeks): 0
- phytotoxicity (visual assessment 0-10) ([5]; 6 g ai/ha, 2 weeks): 0
- phytotoxicity (visual assessment 0-10) ([5]; 6 g ai/ha, 4 weeks): 0
- phytotoxicity (visual assessment 0-10) ([5]; 12 g ai/ha, 2 weeks): 0
- phytotoxicity (visual assessment 0-10) ([5]; 12 g ai/ha, 4 weeks): 0
- phytotoxicity (visual assessment 0-10) ([5]; 25 g ai/ha, 2 weeks): 0
- phytotoxicity (visual assessment 0-10) ([5]; 25 g ai/ha, 4 weeks): 0
- phytotoxicity (visual assessment 0-10) ([5]; 50 g ai/ha, 2 weeks): 0
- phytotoxicity (visual assessment 0-10) ([5]; 50 g ai/ha, 4 weeks): 0
- phytotoxicity (visual assessment 0-10) ([5]; 100 g ai/ha, 2 weeks): 0
- phytotoxicity (visual assessment 0-10) ([5]; 100 g ai/ha, 4 weeks): 0
- phytotoxicity (visual assessment 0-10) ([5]; 200 g ai/ha, 2 weeks): 0
- phytotoxicity (visual assessment 0-10) ([5]; 200 g ai/ha, 4 weeks): 0
- phytotoxicity (visual assessment 0-10) ([5]; 400 g ai/ha, 2 weeks): 1
- phytotoxicity (visual assessment 0-10) ([5]; 400 g ai/ha, 4 weeks): 0

From patent US20100035755A1, “METHOD OF CONTROLLING WEEDS IN A TURF GRASS BY USING SULFONYLUREA COMPOUNDS” (Moghu Research Center Ltd., priority 2008, published 2010)
